From patent US10968172B2, “USP30 inhibitors” (Mitobridge, Inc., priority 2017, dated 2021)

The compounds below were run against USP30 (Homo sapiens (Human), UniProt Q70CQ3) (assay: In vitro biochemical assay for USP30 enzyme (Ubiquitin-Rhodamine110 cleavage, fluorescence)). Conditions: 20 nM USP30, 15 min pre-incubation, 100 nM Ub rhodamine substrate, 2 hrs at room temperature.
Description: In vitro biochemical assay for USP30 enzyme
The in vitro assay for USP30 evaluates the ability of a test compound to inhibit the activity of the enzyme to cleave ubiquitin from a substrate. Ubiquitin-rhodamine 110 is a quenched, fluorescent substrate for USP30. Cleavage of the amide bond between the C-terminal glycine of ubiquitin and rhodamine results in an increase in rhodamine fluorescence at 535 nm (Exc. 485 nm).
Incubation of the substrate in the presence or absence of USP30 was compared to confirm the deubiquitylating activity of USP30. The USP30 enzyme assay was performed by pre-incubating 20 nM of USP30 with varying concentration of a test compound in the assay buffer [PBS (pH 7.4), 1 mM DTT, 0.01% Tween 20, 0.01% BSA, DMSO final concentration is 1%] for 15 mins at room temperature, following which 100 nM of substrate Ub rhodamine was added and incubated at room temperature for 2 hrs and the plate was read for fluorescence intensity at Ex. 485 nm/535 nm in VICTOR X5 plate reader. The percent inhibition of activity of the enzyme is calculated by comparing counts in the presence and absence of compounds.
Test compounds were screened at various concentrations (10-12 tested concentrations) and dose response curves were generated was generated using GraphPad Prism software Version 7 (San Diego, Calif., USA) with non-linear regression curve fit for sigmoidal dose response (variable slope).

Sequence of USP30 (Q70CQ3 whole entry): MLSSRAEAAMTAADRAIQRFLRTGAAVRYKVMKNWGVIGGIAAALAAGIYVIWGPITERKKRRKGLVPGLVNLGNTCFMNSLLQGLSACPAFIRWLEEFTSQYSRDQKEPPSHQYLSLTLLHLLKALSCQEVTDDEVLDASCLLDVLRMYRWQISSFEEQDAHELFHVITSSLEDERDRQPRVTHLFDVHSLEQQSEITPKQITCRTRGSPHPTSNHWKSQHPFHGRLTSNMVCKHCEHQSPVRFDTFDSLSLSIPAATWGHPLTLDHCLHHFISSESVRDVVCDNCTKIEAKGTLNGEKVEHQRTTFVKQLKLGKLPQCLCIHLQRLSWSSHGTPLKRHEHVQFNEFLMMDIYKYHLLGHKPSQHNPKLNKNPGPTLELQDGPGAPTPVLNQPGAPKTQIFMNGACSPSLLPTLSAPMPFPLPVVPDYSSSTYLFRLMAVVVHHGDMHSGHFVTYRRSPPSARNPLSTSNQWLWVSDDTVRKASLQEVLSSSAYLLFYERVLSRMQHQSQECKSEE

Row | Compound | IC50
1 | CC(C)(C)NS(=O)(=O)c1ccc(NC(=O)[C@H](CC2CCCCC2)NC(=O)c2ccccc2F)cc1 [Compound 14f, (S)-N-(1-((4-(N-(tert-butyl)sulfamoyl)phenyl)amino)-3-cyclohexyl-1-oxopropan-2-yl)-2-fluorobenzamide] | 461 nM
2 | CC(C)(C)NS(=O)(=O)c1ccc(NC(=O)[C@H](CC2CCCCC2)NC(=O)c2cccc(F)c2)cc1 [Compound 14g, (S)-N-(1-((4-(N-(tert-butyl)sulfamoyl)phenyl)amino)-3-cyclohexyl-1-oxopropan-2-yl)-3-fluorobenzamide] | 57 nM
3 | CC(C)(C)NS(=O)(=O)c1ccc(NC(=O)[C@H](CC2CCCCC2)NC(=O)c2ccc(F)c(F)c2)cc1 [Compound 14h, (S)-N-(1-((4-(N-(tert-butyl)sulfamoyl)phenyl)amino)-3-cyclohexyl-1-oxopropan-2-yl)-3,4-difluorobenzamide] | 31 nM
4 | CC(C)(C)NS(=O)(=O)c1ccc(NC(=O)[C@H](CC2CCCCC2)NC(=O)c2cccc(C#N)c2)cc1 [Compound 14i, (S)-N-(1-((4-(N-(tert-butyl)sulfamoyl)phenyl)amino)-3-cyclohexyl-1-oxopropan-2-yl)-3-cyanobenzamide] | > 10000 nM
5 | CC(C)(C)NS(=O)(=O)c1ccc(NC(=O)[C@H](CC2CCCCC2)NC(=O)c2ccccn2)cc1 [Compound 14j, (S)-N-(1-((4-(N-(tert-butyl)sulfamoyl)phenyl)amino)-3-cyclohexyl-1-oxopropan-2-yl)picolinamide] | 123 nM
6 | CC(C)(C)NS(=O)(=O)c1ccc(NC(=O)[C@H](Cc2cccs2)NC(=O)C2CCCCC2)cc1 [Compound 19a, (S)-N-(1-((4-(N-(tert-butyl)sulfamoyl)phenyl)amino)-1-oxo-3-(thiophen-2-yl)propan-2-yl)cyclohexanecarboxamide] | 28 nM
7 | COc1ccc(C[C@H](NC(=O)c2cccnc2)C(=O)Nc2ccc(S(=O)(=O)NC(C)(C)C)cc2)cc1 [Compound 19aa, (S)-N-(1-((4-(N-(tert-butyl)sulfamoyl)phenyl)amino)-3-(4-methoxyphenyl)-1-oxopropan-2-yl)nicotinamide] | 208 nM
8 | COc1ccc(C[C@H](NC(=O)c2ccncc2)C(=O)Nc2ccc(S(=O)(=O)NC(C)(C)C)cc2)cc1 [Compound 19ab, (S)-N-(1-((4-(N-(tert-butyl)sulfamoyl)phenyl)amino)-3-(4-methoxyphenyl)-1-oxopropan-2-yl)isonicotinamide] | 2400 nM
9 | CC(C)(C)NS(=O)(=O)c1ccc(NC(=O)[C@H](CC2CCOCC2)NC(=O)C2CCCCC2)cc1 [Compound 19ac, (S)-N-(1-((4-(N-(tert-butyl)sulfamoyl)phenyl)amino)-1-oxo-3-(tetrahydro-2H-pyran-4-yl)propan-2-yl)cyclohexanecarboxamide] | 71 nM
10 | CC(C)(C)NS(=O)(=O)c1ccc(NC(=O)[C@H](Cc2cccc(C#N)c2)NC(=O)C2CCCCC2)cc1 [Compound 19ad, (S)-N-(1-((4-(N-(tert-butyl)sulfamoyl)phenyl)amino)-3-(3-cyanophenyl)-1-oxopropan-2-yl)cyclohexanecarboxamide] | 41 nM
11 | CC(C)(C)NS(=O)(=O)c1ccc(NC(=O)[C@H](Cc2ccc(OC(F)(F)F)cc2)NC(=O)c2ccc(F)cc2)cc1 [Compound 19ae, (S)-N-(1-((4-(N-(tert-butyl)sulfamoyl)phenyl)amino)-1-oxo-3-(4-(trifluoromethoxy)phenyl)propan-2-yl)-4-fluorobenzamide] | 3600 nM
12 | CC(C)(C)NS(=O)(=O)c1ccc(NC(=O)[C@H](Cc2ccc(F)cc2)NC(=O)c2ccccc2)cc1 [Compound 19b, (S)-N-(1-((4-(N-(tert-butyl)sulfamoyl)phenyl)amino)-3-(4-fluorophenyl)-1-oxopropan-2-yl)benzamide] | 133 nM
13 | CC(C)(C)NS(=O)(=O)c1ccc(NC(=O)[C@H](CC2CC2)NC(=O)C2CCCCC2)cc1 [Compound 19c, (S)-N-(1-((4-(N-(tert-butyl)sulfamoyl)phenyl)amino)-3-cyclopropyl-1-oxopropan-2-yl)cyclohexanecarboxamide] | 810 nM
14 | CC(C)(C)NS(=O)(=O)c1ccc(NC(=O)[C@H](Cc2cccc(Cl)c2)NC(=O)C2CCCCC2)cc1 [Compound 19e, (S)-N-(1-((4-(N-(tert-butyl)sulfamoyl)phenyl)amino)-3-(3-chlorophenyl)-1-oxopropan-2-yl)cyclohexanecarboxamide] | > 10000 nM
15 | COc1ccc(C[C@H](NC(=O)c2ccc(F)cc2)C(=O)Nc2ccc(S(=O)(=O)NC(C)(C)C)cc2)cc1 [Compound 19f, (S)-N-(1-((4-(N-(tert-butyl)sulfamoyl)phenyl)amino)-3-(4-methoxyphenyl)-1-oxopropan-2-yl)-4-fluorobenzamide] | 22 nM
16 | CC(C)(C)NS(=O)(=O)c1ccc(NC(=O)[C@H](Cc2cccs2)NC(=O)c2ccc(F)cc2)cc1 [Compound 19g, (S)-N-(1-((4-(N-(tert-butyl)sulfamoyl)phenyl)amino)-1-oxo-3-(thiophen-2-yl)propan-2-yl)-4-fluorobenzamide] | 19 nM
17 | CC(C)NS(=O)(=O)c1ccc(NC(=O)[C@H](Cc2ccccc2)NC(=O)C2CCCCC2)cc1 [Compound 19h, (S)-N-(1-((4-(N-isopropylsulfamoyl)phenyl)amino)-1-oxo-3-phenylpropan-2-yl)cyclohexanecarboxamide] | 179 nM
18 | C[C@@H](O)[C@H](NC(=O)C1CCCCC1)C(=O)Nc1ccc(S(=O)(=O)NC(C)(C)C)cc1 [Compound 19i, N-((2S,3R)-1-((4-(N-(tert-butyl)sulfamoyl)phenyl)amino)-3-hydroxy-1-oxobutan-2-yl)cyclohexanecarboxamide] | > 10000 nM
19 | CC(C)(C)NS(=O)(=O)c1ccc(NC(=O)[C@H](CO)NC(=O)C2CCCCC2)cc1 [Compound 19j, (S)-N-(1-((4-(N-(tert-butyl)sulfamoyl)phenyl)amino)-3-hydroxy-1-oxopropan-2-yl)cyclohexanecarboxamide] | > 10000 nM

The next lines start with the values.

Row | IC50 | Compound
20 | 26 nM | CC(C)(C)NS(=O)(=O)c1ccc(NC(=O)[C@H](Cc2ccc(F)cc2)NC(=O)c2ccc(F)cc2)cc1 [Compound 19k, (S)-N-(1-((4-(N-(tert-butyl)sulfamoyl)phenyl)amino)-3-(4-fluorophenyl)-1-oxopropan-2-yl)-4-fluorobenzamide]
21 | 169 nM | CC(C)(C)NS(=O)(=O)c1ccc(NC(=O)[C@H](Cc2ccc(-c3ccccc3)cc2)NC(=O)c2ccc(F)cc2)cc1 [Compound 19l, (S)-N-(3-([1,1′-biphenyl]-4-yl)-1-((4-(N-(tert-butyl)sulfamoyl)phenyl)amino)-1-oxopropan-2-yl)-4-fluorobenzamide]
22 | 275 nM | CC(C)(C)NS(=O)(=O)c1ccc(NC(=O)[C@H](Cc2ccccc2)NC(=O)C2CCCCC2)cc1F [Compound 19m, (S)-N-(1-((4-(N-(tert-butyl)sulfamoyl)-3-fluorophenyl)amino)-1-oxo-3-phenylpropan-2-yl)cyclohexanecarboxamide]
23 | 16 nM | CC(C)(C)NS(=O)(=O)c1ccc(NC(=O)[C@H](Cc2cccnc2)NC(=O)c2ccc(F)cc2)cc1 [Compound 19n, (S)-N-(1-((4-(N-(tert-butyl)sulfamoyl)phenyl)amino)-1-oxo-3-(pyridin-3-yl)propan-2-yl)-4-fluorobenzamide]
24 | 48 nM | CC(C)(C)NS(=O)(=O)c1ccc(NC(=O)[C@H](Cc2ccccn2)NC(=O)c2ccc(F)cc2)cc1 [Compound 19o, (S)-N-(1-((4-(N-(tert-butyl)sulfamoyl)phenyl)amino)-1-oxo-3-(pyridin-2-yl)propan-2-yl)-4-fluorobenzamide]
25 | 195 nM | CC(C)(C)NS(=O)(=O)c1cccc2c(NC(=O)[C@H](CC3CCCCC3)NC(=O)C3CCCCC3)cccc12 [Compound 19p, (S)-N-(1-((5-(N-(tert-butyl)sulfamoyl)naphthalen-1-yl)amino)-3-cyclohexyl-1-oxopropan-2-yl)cyclohexanecarboxamide]
26 | > 10000 nM | CC(C)(C)NS(=O)(=O)c1cccc2c(NC(=O)[C@H](Cc3ccccc3)NC(=O)/C=C/c3ccccc3)cccc12 [Compound 19q, (S)-N-(1-((5-(N-(tert-butyl)sulfamoyl)naphthalen-1-yl)amino)-1-oxo-3-phenylpropan-2-yl)cinnamamide]
27 | 200 nM | CC(C)(C)NS(=O)(=O)c1ccc(NC(=O)[C@H](Cc2cccs2)NC(=O)c2ccccn2)cc1 [Compound 19s, (S)-N-(1-((4-(N-(tert-butyl)sulfamoyl)phenyl)amino)-1-oxo-3-(thiophen-2-yl)propan-2-yl)picolinamide]
28 | 1040 nM | COc1ccc(C(=O)N[C@@H](Cc2cccs2)C(=O)Nc2ccc(S(=O)(=O)NC(C)(C)C)cc2)nc1 [Compound 19t, (S)-N-(1-((4-(N-(tert-butyl)sulfamoyl)phenyl)amino)-1-oxo-3-(thiophen-2-yl)propan-2-yl)-5-methoxypicolinamide]
29 | 195 nM | COc1ccc(C[C@H](NC(=O)c2ccccn2)C(=O)Nc2ccc(S(=O)(=O)NC(C)(C)C)cc2)cc1 [Compound 19u, (S)-N-(1-((4-(N-(tert-butyl)sulfamoyl)phenyl)amino)-3-(4-methoxyphenyl)-1-oxopropan-2-yl)picolinamide]
30 | > 10000 nM | COc1ccc(C[C@H](NC(=O)c2cncs2)C(=O)Nc2ccc(S(=O)(=O)NC(C)(C)C)cc2)cc1 [Compound 19w, (S)-N-(1-((4-(N-(tert-butyl)sulfamoyl)phenyl)amino)-3-(4-methoxyphenyl)-1-oxopropan-2-yl)thiazole-5-carboxamide]
